Experiment [1] deals with Sprague-Dawley rats. Briefly: Low-intensity tail flick in the rat. Format: in vivo. To be noted: for inhibition in vivo at 21.5 mg/kg / ED50 / inhibition in vivo at 10 mg/kg / inhibition in vivo at 4.64 mg/kg: po; for inhibition in vivo at 21.5 mg/kg / inhibition in vivo at 10 mg/kg / inhibition in vivo at 4.64 mg/kg: MPE, read-out: Low-intensity tail flick rat p.o. % effect (dose [mg/kg]). An excerpt: Low-Intensity Tail Flick in the Rat
The antinociceptive effectiveness of the test substance towards an acute, noxious thermal stimulus was studied in the focal ray (tail flick) test in the rat according to the method of D'Amour and Smith (J. Pharm. Exp. Ther. 72, 74 79 (1941)). Male Sprague-Dawley rats (breeder: Janvier, Le Genest St. Isle, France) weighing from 200 to 250 g were used for this purpose. The animals were accommodated individually in special test compartments and the base of the tail was exposed to the focused ray of an analgesia meter (model 2011, Rhema Labortechnik, Hofheim, Germany). 10 animals were used per group. Before a substance according to the invention was administered, the withdrawal latency (time from switching on of the focal ray to the sudden withdrawal of the tail) was determined twice at an interval of five minutes and the mean value was defined as the control latency time. The intensity of the focal ray was chosen so that the control latency time was 7 to 9 seconds. Measurement of the withdrawal latency was then repeated 10, 20, 30 and 60 minutes after peroral administration of substance. The antinociceptive action of the test substance was determined as the increase in the withdrawal latency time according to the following formula: MPE[%]=[(T1−T0)/(T2−T0)]×100 where: T0=control latency time before administration of substance, T1=latency time after administration of substance, T2=maximum exposure time to the focal ray (30 seconds), MPE=maximum possible effect.
Variance analysis (repeated measures ANOVA) was used to test for statistically significant differences between the substance group and the vehicle group. The level of significance was set at ≦0.05.

Experiment [2] concerns the target T1, KCNQ2/3 channels (Homo sapiens, UniProt O43525+O43526).
T1 construct: expressed in transfected cells
Description: Fluorescence assay using a voltage sensitive dye (fluorimetry). The note with it: CHO-K1 cells expressing KCNQ2/3 channels; for EC50: agonistic activity; for Emax: read-out: Fluorimetry % efficacy (retigabine 50 μM = 100%). Format: cell-based. A digest of the protocol: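 CHO-K1 cells expressing human KCNQ2/3, loaded 45 min with red membrane-potential dye in ES buffer pH 7.4 (1 mM KCl), compound 30 min at room temperature. Fluorescence (525/560 nm) read before (F1) and at peak after KCl to 92 mM final (F2); agonism from F2/F1 change, EC50 fitted.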

One may read the EC50 as the concentration that produces a half-maximal response. By ED50 is commonly meant the midpoint of the dose-response relation. A higher ED50 goes with weaker potency.

For the compound `CC(CCc1cccc(C(F)(F)F)c1)Sc1ncccc1C(=O)NCc1cccs1` (stereo not drawn) [compound 107, 2-[[1-Methyl-3-[3-(trifluoromethyl)phenyl]-propyl]sulfanyl]-N-(thiophen-2-yl-methyl)-pyridine-3-carboxylic acid amide], in experiment [1], the inhibition in vivo at 21.5 mg/kg turned out to be 20%. For the same compound, in experiment [2], the EC50 was 57 nM. Moreover, in experiment [2] (retigabine 50 μM = 100%), the Emax was 119%.

In experiment [1], `CC(C)(C)CCNC(=O)c1cccnc1SCCC(F)(F)c1ccc(F)cc1` [compound 116, 2-[[3,3-Difluoro-3-(4-fluorophenyl)-propyl]sulfanyl]-N-(3,3-dimethyl-butyl)-pyridine-3-carboxylic acid amide] displayed an ED50 of 5.4 mg/kg. Moreover, in experiment [2], the EC50 is 62 nM. In addition, the Emax in experiment [2] (retigabine 50 μM = 100%) is 186%.

On to `O=C(NCc1ccc(F)cc1)c1cccnc1SCCC(F)(F)c1ccc(F)cc1` [compound 124, 2-[[3,3-Difluoro-3-(4-fluorophenyl)-propyl]sulfanyl]-N-[(4-fluorophenyl)-methyl]-pyridine-3-carboxylic acid amide], for which the ED50 in experiment [1] stood at 3.5 mg/kg. This compound also registered an EC50 in experiment [2] of 17 nM. The Emax in experiment [2] (retigabine 50 μM = 100%) worked out at 114%.

For the compound `CC(C)CCNC(=O)c1cccnc1SCCCc1ccc(F)cc1` [compound 133, 2-[3-(4-Fluorophenyl)-propylsulfanyl]-N-(3-methyl-butyl)-pyridine-3-carboxylic acid amide], in experiment [1], the inhibition in vivo at 10 mg/kg came to 61%. In experiment [2], this compound gave an EC50 of 106 nM. In addition, in experiment [2] (retigabine 50 μM = 100%), the Emax was 185%.

For the compound `O=C(NCC1CCCCO1)c1cccnc1SCCCc1ccc(F)cc1` (stereo not drawn) [compound 134, 2-[3-(4-Fluorophenyl)-propylsulfanyl]-N-(tetrahydro-pyran-2-yl-methyl)-pyridine-3-carboxylic acid amide], the inhibition in vivo at 21.5 mg/kg in experiment [1] came to 40%. For the same compound, the EC50 in experiment [2] came out at 268 nM. In experiment [2] (retigabine 50 μM = 100%), the Emax was determined as 224%.

As to `O=C(NCC1C2CCC1CC2)c1cccnc1SCCC(F)(F)c1ccc(F)cc1` (stereo not drawn) [compound 164, N-(7-Bicyclo[2.2.1]heptanyl-methyl)-2-[[3,3-difluoro-3-(4-fluorophenyl)-propyl]sulfanyl]-pyridine-3-carboxylic acid amide], in experiment [1], the inhibition in vivo at 4.64 mg/kg turned out to be 20%. Moreover, the EC50 in experiment [2] is 32 nM. In experiment [2] (retigabine 50 μM = 100%), the Emax came out at 287%.

Consider `CC(C)CCNC(=O)c1cccnc1SCCC(F)(F)c1ccc(F)cc1` [compound 169], for which, in experiment [1], the “Low-intensity tail flick rat p.o. ED50” value is “ED50 2.7 mg/kg”. This compound gave an EC50 in experiment [2] of 19 nM. Further, the “Fluorimetry % efficacy (retigabine 50 μM = 100%)” value in experiment [2] (retigabine 50 μM = 100%) is recorded as 224%.

For `CCCCNC(=O)c1cccnc1SCCC(F)(F)c1ccc(F)cc1` [compound 170, N-Butyl-2-[[3,3-difluoro-3-(4-fluorophenyl)-propyl]sulfanyl]-pyridine-3-carboxylic acid amide], the inhibition in vivo at 4.64 mg/kg in experiment [1] was 20%. This compound also registered an EC50 in experiment [2] of 24 nM. The Emax in experiment [2] (retigabine 50 μM = 100%) was 229%.

With `O=C(NCC1CCCCO1)c1cccnc1SCCC(F)(F)c1ccc(F)cc1` (stereo not drawn) [compound 180, 2-[[3,3-Difluoro-3-(4-fluorophenyl)-propyl]sulfanyl]-N-(tetrahydro-pyran-2-yl-methyl)-pyridine-3-carboxylic acid amide], in experiment [1], the inhibition in vivo at 10 mg/kg was 64%. The same compound returned an EC50 in experiment [2] of 47 nM. For the same compound, the Emax in experiment [2] (retigabine 50 μM = 100%) was 224%.

The values above are taken from patent US8586755B2, “Substituted nicotinamides as KCNQ2/3 modulators” (Grünenthal GmbH, priority 2009, dated 2013).
